According to patent US20040077656A1, “Quinolines and nitrogenated derivatives thereof substituted in 4-position by a piperazine-containing moiety and their use as antibacterial agents” (priority 2000, published 2004):
Structures can show the parent of a compound that is named as a salt. Where two headings read alike, the source gives them in different places.

System: S. aureus Oxford, S. aureus WCUH29, S. pneumoniae 1629, S. pneumoniae N1387, S. pneumoniae ERY 2
Assay: MIC of test compounds against various organisms
Type: cell-based
Description: The MIC (μg/ml) of test compounds against various organisms was determined: S. aureus Oxford, S. aureus WCUH29, S. pneumoniae 1629, S. pneumoniae N1387, S. pneumoniae ERY 2.

SMILES | MIC (against one or more of S. aureus Oxford, S. aureus WCUH29, S. pneumoniae 1629, S. pneumoniae N1387, S. pneumoniae ERY 2, read-out: MIC) | MIC
COc1ccc2nccc([C@@H](O)CN3CCN(CCNC(=O)c4cccs4)CC3)c2c1 [Example 7, Thiophene-2-carboxylic acid (2-{14[(R)-2-hydroxy-2-(6-methoxy-quinolin-4-yl)-ethyl]-piperazin-1-yl}-ethyl)-amide Dioxalate Salt] | < 1 µg/mL | –
COc1ccc2nccc([C@@H](O)CN3CCN(CCCCc4ccccc4)CC3)c2c1 [Example 12, (R)-1-(6-Methoxy-quinolin-4-yl)-2-[4-(4-phenyl-butyl)piperazin-1-yl]-ethanol Dioxalate] | – | < 1 µg/mL
